Assay results from patent US9441000B2, “Use of metallocene compounds for cancer treatment” (Chevron Phillips Chemical Company LP, priority 2011, dated 2016).
Blank lines part the entries; values can stand above or below the compound they belong to.

Tests used:
Assay type in all cases: cell-based
[1] = tested on: NCI-Adr-Res chemoresistant ovarian cancer cells; experiment: CellTiter-Blue viability assay, NCI-Adr-Res; conditions: Homo sapiens, 96 hr treatment, approximately 5,000 NCI-Adr-Res cells
Protocol: (§1) Examples 18-22 were prepared and tested as follows. Approximately 5,000 A549 cells (University of Texas M.D. Anderson Cancer Center) growing in RPMI 1640 were plated in each 96-well overnight before adding the test compounds for 96 hr of treatment. Final concentrations achieved in the wells were 0, 0.8, 1.6, 3.1, 6.2, 12.5, 25, 50, 100, and 200 μM. All of the test compounds were reconstituted in DMSO just before the treatment. […] After 96 hr, the medium was refreshed. Approximately 10 μL of CellTiter-Blue® (Promega) was added to 100 μL of medium in each well and incubated at 37° C. for >4 hours. The plates were scanned using a SpectraMax M2 model microplate reader to measure the absorbance. CellTiter-Blue contains dark blue resazurin. Viable cells are able to convert non-fluorescent resazurin to its fluorescent product, resorufin. […] Reduction of resazurin to resorufin also involves a shift of the absorbance maximum from 605 nm to 573 nm, so viability can also be estimated using absorbance. Results were normalized to untreated controls to determine the percent reduction in viability. Graphs were generated using GraphPad Prism (GraphPad Software, Inc).
Examples 42-45 were prepared and tested using substantially the same procedure as described in Examples 18-22, except that approximately 5,000 NCI-Adr-Res ovarian cancer cells (National Cancer Institute) were used. […]

[2] = tested on: Hey-A8 MDR chemoresistant ovarian cancer cells; experiment: CellTiter-Blue viability assay, Hey-A8 MDR; conditions: HeyA8-MDR, 96 hr treatment, approximately 5,000 Hey-A8 MDR cells
Protocol: as §1
Examples 38-41 were prepared and tested using substantially the same procedure as described in Examples 18-22, except that approximately 5,000 Hey-A8 MDR ovarian cancer cells (University of Texas M.D. Anderson Cancer Center) were used. […]

[3] = tested on: MeWo chemoresistant melanoma cancer cells; experiment: CellTiter-Blue viability assay, MeWo; conditions: Homo sapiens, 96 hr treatment, approximately 5,000 MeWo cells
Protocol: as §1
Examples 50-53 were prepared and tested using substantially the same procedure as described in Examples 18-22, except that approximately 5,000 MeWo melanoma cancer cells (University of Texas M.D. Anderson Cancer Center) were used. […]

[4] = tested on: A2780 ovarian cancer cells; experiment: CellTiter-Blue viability assay, A2780, approximately 2,000 cells (Examples 23-27); conditions: 96 hr treatment, approximately 2,000 A2780 cells
Protocol: as §1
Examples 23-27 were prepared and tested using substantially the same procedure as described in Examples 18-22, except that approximately 2,000 A2780 ovarian cancer cells (University of Texas M.D. Anderson Cancer Center) were used. […]

[5] = tested on: A549 (lung carcinoma) cell line; experiment: Sulforhodamine-B (SRB) microculture colorimetric cytotoxicity assay, A549; conditions: 96 hr treatment, A549 lung carcinoma cells, read-out: IC50 ± SD, A549
Protocol: (§2) Drug solutions of CPH-1, CPH-2 and CPH-3 were made in dimethyl sulfoxide (DMSO, Sigma Aldrich) at a concentration of 20 mM, filtered through a Millipore filter, 0.22 μm, before use, and diluted by nutrient medium to various working concentrations. The nutrient medium was RPMI-1640 (PAA Laboratories) supplemented with 10% fetal bovine serum (Biochrom AG) and penicillin/streptomycin (PAA Laboratories). […]
(§3) The cytotoxic activities of CPH-1, CPH-2 and CPH-3 were evaluated using a sulforhodamine-B (SRB, Sigma Aldrich) microculture colorimetric assay, as described in Skehan et al., J. Natl. Cancer I. 82 (1990) 1107-1112, the disclosure of which is incorporated herein by reference in its entirety. […] The percentages of surviving cells relative to untreated controls were determined 96 hr after the beginning of drug exposure. […] After dyeing, the plates were again washed to remove the dye with 1% acetic acid and allowed to air dry overnight, 100 μL of 10 mM Tris base solutions were added to each well of the plate, and absorbance was measured at 570 nm using a 96 well plate reader (Tecan Spectra, Crailsheim, Germany). […]

[6] = tested on: T-24 chemoresistant urinary bladder cancer cells; experiment: CellTiter-Blue viability assay, T-24; conditions: 96 hr treatment, approximately 5,000 T-24 cells
Protocol: as §1
Examples 46-49 were prepared and tested using substantially the same procedure as described in Examples 18-22, except that approximately 5,000 T-24 urinary bladder cancer cells (American Type Culture Collection) were used. […]

[7] = tested on: A549 lung carcinoma cell line; experiment: CellTiter-Blue viability assay, A549 (Examples 18-22); conditions: 96 hr treatment, approximately 5,000 A549 cells per well
Protocol: as §1

[8] = tested on: SKOV-3 chemoresistant ovarian cancer cells; experiment: CellTiter-Blue viability assay, SKOV-3; conditions: 96 hr treatment, approximately 5,000 SKOV-3 cells
Protocol: as §1
Examples 34-37 were prepared and tested using substantially the same procedure as described in Examples 18-22, except that approximately 5,000 SKOV-3 ovarian cancer cells (American Type Culture Collection) were used. […]

[9] = tested on: A253 (head and neck tumor) cell line; experiment: Sulforhodamine-B (SRB) microculture colorimetric cytotoxicity assay, A253; conditions: 96 hr treatment, A253 head and neck tumor cells, read-out: IC50 ± SD, A253
Protocol: as §2, §3

[10] = tested on: A2780 (ovarian cancer) cell line; experiment: Sulforhodamine-B (SRB) microculture colorimetric cytotoxicity assay, A2780; conditions: 96 hr treatment, A2780 ovarian cancer cells, read-out: IC50 ± SD, A2780
Protocol: as §2, §3

IC50 [1]: 14.3 µM
SMILES: COc1cccc2c1C(=O)c1c(O)c3c(c(O)c1C2=O)C[C@@](O)(C(=O)CO)C[C@@H]3O[C@H]1C[C@H](N)[C@H](O)[C@H](C)O1 [Doxorubicin, doxorubicin, reference compound]

IC50 [2]: 0.03 µM
SMILES: CC(=O)O[C@H]1C(=O)[C@@]2(C)[C@H]([C@H](OC(=O)c3ccccc3)[C@]3(O)C[C@H](OC(=O)[C@H](O)[C@@H](NC(=O)c4ccccc4)c4ccccc4)C(C)=C1C3(C)C)[C@]1(OC(C)=O)CO[C@@H]1C[C@@H]2O [Paclitaxel, paclitaxel, reference compound]

IC50 [3]: 7.9 µM
SMILES: CN(C)/N=N/c1[nH]cnc1C(N)=O [Dacarbazine, dacarbazine, reference compound]

SMILES: N.N.[Cl][Pt][Cl] [Cisplatin, cisplatin, reference compound]
IC50 [4]: 35.4 µM | IC50 [5]: 1.51 ± 0.02 µM | IC50 [6]: > 200 µM | IC50 [7]: 82.7 µM | IC50 [8]: 12.8 µM | IC50 [9]: 0.81 ± 0.02 µM | IC50 [10]: 0.55 ± 0.03 µM
